Assay results: US9617237B2, “Partially saturated tricyclic compounds and methods of making and using same” (Zafgen, Inc., priority 2011, dated 2017)
Structures can show the parent of a compound that is named as a salt.

What follows are compounds tested against T1, recombinant human MetAP2 (Homo sapiens, UniProt P50579) (assay: Inhibition of recombinant human MetAP2 activity (fluorescence, MAS substrate, amino acid oxidase/Amplex red)). Conditions: manganese enzyme; 0.75 mM Methionine-Alanine-Serine (MAS) substrate; 30 minutes at 25° C.; pH 7.5; 1% DMSO.
T1 construct: made in house; host or cells: Sf9 insect cells
Format: biochemical
Description: Compounds are tested for their capacity to inhibit recombinant human MetAP2 activity using the following assay.
Human recombinant MetAP2 expressed in Sf9 cells followed by affinity purification and EDTA treatment to remove endogenous active site cation was dialysed against MnCl2 to produce the manganese enzyme used in the assay. The assay was carried out for 30 minutes at 25° C. in 50 mM HEPES buffer containing 100 mM NaCl, pH 7.5 the presence of 0.75 mM Methionine-Alanine-Serine (MAS) substrate and 50 μg/ml amino acid oxidase using a dilution of purified MetAP2 giving >3-fold signal: noise. Cleavage of the substrate by MetAP2 and oxidation of free methionine by amino acid oxidase was detected and quantified using fluorescence generated by Amplex red (10-acetyl-3,7-dihydroxyphenoxazine) in combination with horseradish peroxidase which detects H2O2 released during the oxidation step. The fluorescent signal was detected using a multiwell fluorimeter. Compounds were diluted in DMSO prior to addition to assay buffer, the final DMSO concentration in the assay being 1%.
IC50 values are calculated using the XLfit software package (version 2.0.5).

T1 sequence (P50579 whole entry): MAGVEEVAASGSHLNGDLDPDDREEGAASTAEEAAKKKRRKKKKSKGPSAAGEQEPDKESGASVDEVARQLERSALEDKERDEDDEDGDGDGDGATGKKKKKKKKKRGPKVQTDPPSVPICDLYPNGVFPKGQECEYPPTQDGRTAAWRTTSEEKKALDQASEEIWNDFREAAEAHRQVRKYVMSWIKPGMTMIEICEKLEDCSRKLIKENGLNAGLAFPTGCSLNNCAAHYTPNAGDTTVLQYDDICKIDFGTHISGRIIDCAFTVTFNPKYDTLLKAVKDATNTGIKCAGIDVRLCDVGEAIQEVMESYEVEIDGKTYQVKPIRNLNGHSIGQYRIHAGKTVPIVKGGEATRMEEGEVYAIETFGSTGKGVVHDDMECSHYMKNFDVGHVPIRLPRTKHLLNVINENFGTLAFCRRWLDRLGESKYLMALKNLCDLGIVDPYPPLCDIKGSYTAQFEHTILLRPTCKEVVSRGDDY

| Compound | IC50 [nM] |
| --- | --- |
| O=C(O)c1c(NS(=O)(=O)c2ccc(F)cc2/C=C\CN2CCCC2)ccc2c1OC[C@@H]1C[C@H]21 (single isomer, unassigned) [(1aRS,7bSR)-5-{2[(Z)-3-(pyrrolidin-1-yl)prop-1-enyl]-4-fluorobenzenesulfonylamino}-1,1a,2,7b-tetrahydro-cyclopropa[c]chromene-4-carboxylic acid] | 50 to 500 |
| CCN(CC)C/C=C\c1cc(F)ccc1S(=O)(=O)Nc1ccc2c(c1C(=O)O)OCC1CC21 (stereo not shown) [5-[2-((Z)-3-Diethylaminoprop-1-enyl)-4-fluorobenzenesulfonyl-amino]-1,1a,2,7b-tetrahydrocyclopropa[c]chromene-4-carboxylic acid] | < 50 |
| O=C(O)c1c(NS(=O)(=O)c2ccccc2)ccc2c3c(cnc12)OCC3 [7-(Benzenesulfonylamino))-1,2-dihydrofuro[2,3-c]quinoline-6-carboxylic acid formate salt] | < 50 |
| CCN(CC)C/C=C\c1cc(F)ccc1S(=O)(=O)Nc1ccc2c3c(cnc2c1C(=O)O)OCC3 [7-[2-((Z)-3-Diethylaminoprop-1-enyl)-4-fluorobenzenesulfonyl-amino]-1,2-dihydrofuro[2,3-c]quinoline-6-carboxylic acid formate salt] | < 50 |
| CCN(CC)C/C=C\c1cc(F)ccc1S(=O)(=O)Nc1ccc2c(c1C(=O)O)OC[C@@H]1C[C@H]21 [(1aR,7bS) 5-[2-((Z)-3-Diethylaminoprop-1-enyl)-4-fluorobenzenesulfonyl-amino]-1,1a,2,7b-tetrahydrocyclopropa[c]chromene-4-carboxylic acid] | < 50 |
| CCN1CCCC(Cc2cc(F)ccc2S(=O)(=O)Nc2ccc3c(c2C(=O)O)OC[C@@H]2C[C@H]32)C1 (stereo partly drawn) [(1aR,7bS)-5-[2-(1-Ethylpiperidin-3-ylmethyl)-4-fluorobenzene-sulfonylamino]-1,1a,2,7b-tetrahydrocyclopropa[c]chromene-4-carboxylic acid] | 50 to 500 |
| CCN(CC)CCCc1cc(F)ccc1S(=O)(=O)Nc1ccc2c(c1C(=O)O)OC[C@@H]1C[C@H]21 [(1aR,7bS)-5-[2-(3-Diethylaminopropyl)-4-fluorobenzenesulfonyl-amino]-1,1a,2,7b-tetrahydrocyclopropa[c]chromene-4-carboxylic acid] | < 50 |
| CCN1CC[C@@H](OCc2cc(F)ccc2S(=O)(=O)Nc2ccc3c(c2C(=O)O)OC[C@@H]2C[C@H]32)C1 [(1aR,7bS)-5-[2-((R)-1-Ethylpyrrolidin-3-yloxymethyl)-4-fluoro-benzenesulfonylamino]-1,1a,2,7b-tetrahydrocyclopropa-[c]chromene-4-carboxylic acid] | 50 to 500 |
| CCN1CC[C@H](OCc2cc(F)ccc2S(=O)(=O)Nc2ccc3c(c2C(=O)O)OC[C@@H]2C[C@H]32)C1 [(1aR,7bS)-5-[2-((S)-1-Ethylpyrrolidin-3-yloxymethyl)-4-fluoro-benzenesulfonylamino]-1,1a,2,7b-tetrahydrocyclopropa-[c]chromene-4-carboxylic acid] | 50 to 500 |
| CCN1CCC[C@H]1CCc1cc(F)ccc1S(=O)(=O)Nc1ccc2c(c1C(=O)O)OC[C@@H]1C[C@H]21 [(1aR,7bS)-5-{2-[2-((R)-1-Ethylpyrrolidin-2-yl)ethyl]-4-fluorobenzenesulfonyl-amino}-1,1a,2,7b-tetrahydrocyclopropa-[c]chromene-4-carboxylic acid] | 50 to 500 |
| CCN(CC)CCCCc1cc(F)ccc1S(=O)(=O)Nc1ccc2c(c1C(=O)O)OCC1CC21 (stereo not drawn) [(1aRS,7bSR)-5-[2((Z)-4-Diethylaminobutyl)-4-fluorobenzenesulfonylamino]-1,1a,2,7b-tetrahydrocyclopropa[c]chromene-4-carboxylic acid] | 50 to 500 |
| CCN(CC)CCCNc1ccccc1S(=O)(=O)Nc1ccc2c(c1C(=O)O)OCC1CC21 (stereo not drawn) [(1aRS,7bSR)-5-[2-(3-N,N,-Diethylaminopropylamino)benzene-sulfonylamino]-1,1a,2,7b-tetrahydrocyclopropa[c]chromene-4-carboxylic acid] | < 50 |
| O=C(O)c1c(NS(=O)(=O)c2ccc(F)cc2/C=C\CNN2CC[C@H](O)C2)ccc2c1OC[C@@H]1C[C@H]21 [(1aRS,7bSR)-5-{2[(Z)-3-((S)-3-hydroxypyrrolidin-1-y)aminoprop-1-enyl]-4-fluorobenzenesulfonylamino}-1,1a,2,7b-tetrahydrocyclopropa[c]chromene-4-carboxylic acid] | 50 to 500 |
| O=C(O)c1c(NS(=O)(=O)c2ccc(F)cc2CCCN2CCC2)ccc2c1OCC1CC21 (stereo not drawn) [(1aRS,7bSR)-5-{2[(Z)-3-(Azetidin-1-yl)propyl]-4-fluorobenzenesulfonylamino}-1,1a,2,7b-tetrahydrocyclopropa[c]chromene-4-carboxylic acid] | 50 to 500 |
| CCN(CC)C/C=C\c1cc(F)ccc1S(=O)(=O)Nc1ccc2c(c1C(=O)O)OC[C@H]1C[C@@H]21 [(1aS,7bR) 5-[2-((Z)-3-Diethylaminoprop-1-enyl)-4-fluorobenzenesulfonyl-amino]-1,1a,2,7b-tetrahydrocyclopropa[c]chromene-4-carboxylic acid] | 50 to 500 |
| (1aRS,7bSR)-5-{2[(Z)-3-((R)-3-Hydroxypyrrolidin-1-yl)aminoprop-1-enyl]-4-fluorobenzene-sulfonylamino}-1,1a,2,7b-tetrahydro-cyclopropa[c]chromene-4-carboxylic acid | 50 to 500 |
